The values below come from article PMC6843786, “Temporin-SHa and Its Analogs as Potential Candidates for the Treatment of Helicobacter pylori” (Biomolecules, 2019).

Series [1] has as its system H. pylori (ATCC 43504). Put plainly: MIC after digestion by pepsin (resistance to pepsin). How it is done: (§1) Briefly, after the growth of H. pylori in liquid culture the optical density (OD) of the bacterial suspensions were read at 600 nm and adjusted to one. Stock solutions of the peptides at 1 mM were prepared in sterile water. Bacteria were diluted in medium to reach bacterial density around 10^5 bacteria/mL. One-hundred microliters per well of bacterial suspension were then added into sterile polypropylene 96-well microplates (Greiner BioOne, Paris, France) and exposed to increasing concentrations of peptides (from zero to 100 µM, 1:2 serial dilution). […] Plates were incubated at 37 °C for 24 h for H. pylori (ATCC 43504) and for 4–7 days for the clinical strains. H. pylori was tested in microaerophilic conditions generated using micro-anaerobic BD GasPak system. At the end of the incubation, OD600nm was measured using microplate reader (Synergy Mx, Biotek, Colmar, France). The MIC was defined as the lowest concentration of drug that inhibited visible growth of the organism. Experiments were conducted in independent triplicate (n = 3).
It is also rich with mucus to protect it from the aggressive acidity. For this reason, the impact of mucins and pepsin on the activity of the peptides was investigated. The impact of the gastric mucins on peptide activity was evaluated using a combination of commercial porcine stomach mucins MUC2 and MUC3 (Sigma–Aldrich) at a final concentration of 1 mg/mL sterilized using 0.2 µm filter. This concentration was used based on the estimated concentration of mucins present in the mucus in vivo [27]. The effect of mucins on peptides activity was evaluated by MIC and by time killing assay as explained below. The resistance of the peptides to pepsin was tested as previously described with some changes. […] This concentration was used since it corresponds the pepsin concentration in the stomach (0.5–1 mg/mL).

Series [2] concerns total lipids extracted from H. pylori (ATCC 43504). The experiment in a line: Lipid insertion assay (lipid monolayer, critical pressure of insertion). Further details: species or system biophysical. The following applies: peptide 1 µM, PBS pH 7.4, from the line fits of Figure 4. How it is done:
Peptide-lipid interaction was measured using reconstituted lipid monolayer at the air-water interface as previously described. Total lipids were extracted from overnight cultures of H. pylori (ATCC 43504) using Folch extraction procedure as previously described. Extracted total lipids were dried, resolubilized in chloroform:methanol (2:1, v/v) and stored at -20 °C under nitrogen. For peptide-lipid interaction assay, total lipid extract was spread using a 50 μL Hamilton's syringe at the surface of 800 μL of sterile PBS creating a lipid monolayer at the air-water interface. Lipids were added until the surface pressure reached the desired value. […] The variation of the surface pressure caused by peptide injection was then continuously monitored using a fully automated microtensiometer (μTROUGH SX, Kibron Inc., Helsinki, Finland) until reaching equilibrium (maximal surface pressure increase being usually obtained after 15-25 min). […] Variation of surface pressure was plotted as a function of initial surface pressure and the critical pressure of insertion of each peptide into H. pylori lipids was calculated as the theoretical value of initial pressure of lipid monolayer not permissive to peptide insertion, i.e., giving a variation of pressure equal to 0 mN/m.

In series [3] the test system is H. pylori (ATCC 43504).
Excerpt: (§2) H. pylori used in this study were either the reference strain obtained from the American Type Culture Collection (ATCC 43504) or clinical strains received frozen from our collaborator Josette Raymond from Hospital Cochin, Paris. Strains were obtained from patients who underwent a gastroendoscopy performed for various gastro-intestinal disorders according to the recommendations of Haute Autorité de Santé (HAS). During the endoscopy, biopsy samples were taken from antrum and corpus. Samples were then crushed, and the material was used for bacterial culture and molecular methods. An antibiogram was performed and strains were then frozen at -80 °C in a broth with 10% glycerol. Bacteria were cultured as previously described. Briefly, H. pylori (ATCC 43504) was cultured in brain heart infusion (BHI) and incubated at 37 °C for 16 h in microaerophilic condition in BD GasPak EZ using BD GasPak EZ CampyPak container system sachets (BD Biosciences, Le Pont-de-Claix, France). For clinical strains, a sample from the frozen bacteria was streaked on Blood Agar (Base) (Sigma-Aldrich, Illkirch-Graffenstaden, France) supplemented with 5% horse defibrinated blood (Fisher Scientific, Les Ulis, France) and 2% isovitale-X (Fisher Scientific, Illkirch-Graffenstaden, France). The petri dishes were then incubated at 37 °C for 4–7 days in microaerophilic condition. Then, a colony is transferred to 3 mL Mueller Hinton (MH) broth supplemented with 10% fetal bovine serum (FBS) and 2% isovitale-X. The cultures were then incubated for 4–7 days until the bacteria grow before further experiments.
as §1

Series [4] relates to clinical strains of H. pylori. The following applies: for MIC: MH + 10% FBS + 2% isovitale-X.
Excerpt: as §2, §1

The test system of a further series is N87 cells. Put plainly: In vitro toxicity assay using human gastric cells (resazurin). It counts as cell-based. How it is done: [26] Human gastric cells N87 (ATCC CRL-5822) were cultured in RPMI-1640 medium supplemented with 10% fetal calf serum (FCS), 1% L-glutamine and 1% antibiotics (all from Invitrogen, Carlsbad, CA, USA) and were routinely seeded onto 25 cm^2 flasks maintained in a 5% CO2 incubator at 37 °C. For the toxicity assay, cells grown on 25 cm^2 flasks were detached using trypsin–EDTA solution (from Thermofisher), counted using Mallasez counting chamber and seeded into 96-well cell culture plates (Greiner Bio-one) at approximately 10^4 cells per well. The cells were left to grow for 48–72 h at 37 °C in a 5% CO2 incubator until they reached confluence. Plates were then aspirated and increasing concentrations of peptides were added to the cells for 48 h at 37 °C in a 5% CO2 incubator, volume of water corresponding to the volume of peptides being used as negative control. At the end of the incubation, wells were aspirated, and cell viability was evaluated using resazurin-based in vitro toxicity assay kit (Sigma-Aldrich) following manufacturer’s instructions. Briefly, resazurin stock solution was diluted 1:10 in sterile PBS containing calcium and magnesium (PBS^++, pH 7.4) and empty wells were filled with 100 µL of the diluted solution. After 4 h incubation at 37 °C, fluorescence intensity was measured using microplate reader (Synergy Mx, Biotek) with an excitation wavelength of 530 nm and an emission wavelength of 590 nm. The fluorescence values were normalized by the controls and expressed as percent viability.
A general note: Alamar Blue is a resazurin reagent that responds to reducing activity.

Entries after “also recorded” stand apart in the source; their conditions may differ. Read-outs that look alike come from different tables or passages of the source. Non-standard residues stand in square brackets, D forms with d. Residues, ends and D or L forms follow the SMILES beside them.

In general, MIC refers to the lowest concentration found to suppress growth. One may read the IC50 as the concentration that inhibits the measured activity by half. Take `CC[C@H](C)[C@H](NC(=O)CNC(=O)[C@H](CO)NC(=O)[C@H](CC(C)C)NC(=O)[C@@H](N)Cc1ccccc1)C(=O)N[C@H](C(=O)NCC(=O)N[C@@H](CCSC)C(=O)N[C@@H](CC(C)C)C(=O)N[C@H](C)C(=O)N[C@@H](CCCCN)C(=O)N[C@@H](CC(C)C)C(=O)N[C@@H](Cc1ccccc1)C(N)=O)C(C)C` [NST1, H-Phe^1-Leu^2-Ser^3-Gly^4-Ile^5-Val^6-Gly^7-Met^8-Leu^9-D-Ala^10-Lys^11-Leu^12-Phe^13-NH2] (H-FLSGIVGML[dA]KLF-NH2): in the series on H. pylori (ATCC 43504) [1] (4 h at 37 °C with pepsin 1 mg/mL in HCl pH 2), the “MIC after Digestion by Pepsin” value turned out to be 25 µM. Also, the “resistance to pepsin (in words)” value with H. pylori (ATCC 43504) [1] (4 h at 37 °C with pepsin 1 mg/mL, HCl pH 2) is listed as “partial resistance towards pepsin; also recorded: partial resistance to the digestion by pepsin”. In series [2], the “critical pressure of insertion (CPI)” value is 38.65 mN/m. Besides, the “MIC on H. pylori (ATCC 43504)” value in the series with H. pylori (ATCC 43504) [3] (MH medium, 24 h, microaerophilic) is 1.5 µM. For the same compound, the “MIC on H. pylori (ATCC 43504) in MH supplemented with 10% FBS” value in the series with H. pylori (ATCC 43504) [3] (MH supplemented with 10% FBS) turned out to be 6.25 µM. Further, in series [4] (all resistant clinical strains, MH + 10% FBS), the “MIC values against resistant clinical strains (span over all strains)” value was 6.25 to 12.5 µM. The MIC in series [4] (clinical strain BM18, resistance Clari/Metro) is reported as 12.5 µM; in series [4] (clinical strain EM68, resistance Clari/Metro), 12.5 µM; in series [4] (clinical strain LN18, resistance Clari), 6.25 µM; in series [4] (clinical strain MF76, resistance Clari/Metro), 12.5 µM; in series [4] (clinical strain MP78, resistance Clari/Metro) it was 12.5 µM; in series [4] (clinical strain MS67, resistance Clari/Metro) it was 12.5 µM. Also, the MIC in series [4] (clinical strain NM44, resistance Clari/Metro) is given as 6.25 µM. In the series with N87 cells (48 h incubation, resazurin cell viability, read-out: IC50 on N87 Cells), the concentration for half-maximal inhibition (IC50) was 90.4 ± 10.4 µM. Also, the “increase in toxicity to human gastric cells compared to temporin-SHa” value in the series with N87 cells (from IC50 on N87 cells) is listed as roughly 17 fold.
